Assay results reported in US20240294541A1, “COMPOUNDS CONSTITUTING C20-MODIFIED SALINOMYCIN DERIVATIVES, A METHOD FOR OBTAINING THE SAME, A COMPOSITION CONTAINING THE SAME AND A USE OF SAID COMPOUNDS” (FILECLO SPOLKA Z OGRANICZONA ODPOWIEDZIALNOSCIA, priority 2021, published 2024).
Like-named read-outs stand apart in the source and are kept apart here.

Key:
Type in all cases: cell-based
[1] = test system: BALB/3T3 (normal mouse fibroblasts); experiment: In vitro cytotoxicity, SRB assay, normal BALB/3T3 fibroblasts
[2] = test system: A2780Cis (cisplatin-resistant human ovarian cancer); experiment: In vitro cytotoxicity, SRB assay, A2780Cis; conditions: for IC50: Homo sapiens, A2780cis, read-out: IC50 (nM) A2780Cis
[3] = test system: MV-4-11 (human biphenotypic leukaemia); experiment: In vitro cytotoxicity, MTT assay, MV-4-11; conditions: for IC50: Homo sapiens, MV4-11, read-out: IC50 (nM) MV4-11
[4] = Table 5, BALB/3T3 normal mouse fibroblasts, read-out: IC50 (nM) BALB3T3 normal cells

Structure (SMILES)	IC50 [1, 4] [nM]	SI A2780Cis [2]	IC50 [2] [nM]	SI MV4-11 [3]	IC50 [3] [nM]	IC50 ([1]; Mus musculus, BALB/3T3, read-out: IC50 (nM) BALB3T3 normal cells) [nM]
CC[C@@H](C(=O)[C@@H](C)[C@@H](O)[C@H](C)[C@@H]1O[C@@H]([C@@H](CC)C(=O)O)CC[C@@H]1C)[C@H]1O[C@]2(C=C[C@@H](NC(=O)OCCCCl)[C@]3(CC[C@@](C)([C@H]4CC[C@](O)(CC)[C@H](C)O4)O3)O2)[C@H](C)C[C@@H]1C [FLC-00530-1•Na]	62.5	24.0	2.6	9.7	6.42	
CC[C@@H](C(=O)[C@@H](C)[C@@H](O)[C@H](C)[C@@H]1O[C@@H]([C@@H](CC)C(=O)O)CC[C@@H]1C)[C@H]1O[C@]2(C=C[C@@H](NC(=O)OC(C(F)(F)F)C(F)(F)F)[C@]3(CC[C@@](C)([C@H]4CC[C@](O)(CC)[C@H](C)O4)O3)O2)[C@H](C)C[C@@H]1C [FLC-00531-1•Na]		13.2	11	6.2	23.3	145
CC[C@@H](C(=O)[C@@H](C)[C@@H](O)[C@H](C)[C@@H]1O[C@@H]([C@@H](CC)C(=O)O)CC[C@@H]1C)[C@H]1O[C@]2(C=C[C@@H](NC(=O)CC(C)(C)C)[C@]3(CC[C@@](C)([C@H]4CC[C@](O)(CC)[C@H](C)O4)O3)O2)[C@H](C)C[C@@H]1C [FLC-00534-1•Na]	64.9	50.7	1.28	42.4	1.53	
CC[C@@H](C(=O)[C@@H](C)[C@@H](O)[C@H](C)[C@@H]1O[C@@H]([C@@H](CC)C(=O)O)CC[C@@H]1C)[C@H]1O[C@]2(C=C[C@@H](NC(=O)N(C)C)[C@]3(CC[C@@](C)([C@H]4CC[C@](O)(CC)[C@H](C)O4)O3)O2)[C@H](C)C[C@@H]1C [FLC-00538-1•Na]	943	22.4	42.2	9.2	103	
CC[C@@H](C(=O)[C@@H](C)[C@@H](O)[C@H](C)[C@@H]1O[C@@H]([C@@H](CC)C(=O)O)CC[C@@H]1C)[C@H]1O[C@]2(C=C[C@@H](NC(=O)NCCCOC)[C@]3(CC[C@@](C)([C@H]4CC[C@](O)(CC)[C@H](C)O4)O3)O2)[C@H](C)C[C@@H]1C [FLC-00539-1•Na]	326	46.1	7.06	11.9	27.3	
CC[C@@H](C(=O)[C@@H](C)[C@@H](O)[C@H](C)[C@@H]1O[C@@H]([C@@H](CC)C(=O)O)CC[C@@H]1C)[C@H]1O[C@]2(C=C[C@@H](NC(=O)N3CCOCC3)[C@]3(CC[C@@](C)([C@H]4CC[C@](O)(CC)[C@H](C)O4)O3)O2)[C@H](C)C[C@@H]1C [FLC-00540-1•Na]	891	24.1	37	16.5	53.9	
CC[C@@H](C(=O)[C@@H](C)[C@@H](O)[C@H](C)[C@@H]1O[C@@H]([C@@H](CC)C(=O)O)CC[C@@H]1C)[C@H]1O[C@]2(C=C[C@@H](NC(=O)N3CCC3)[C@]3(CC[C@@](C)([C@H]4CC[C@](O)(CC)[C@H](C)O4)O3)O2)[C@H](C)C[C@@H]1C [FLC-00543-1•Na]	1020	15.2	67	5.9	174	
CC[C@@H](C(=O)[C@@H](C)[C@@H](O)[C@H](C)[C@@H]1O[C@@H]([C@@H](CC)C(=O)O)CC[C@@H]1C)[C@H]1O[C@]2(C=C[C@@H](NC(=O)NCC3CCC(F)(F)CC3)[C@]3(CC[C@@](C)([C@H]4CC[C@](O)(CC)[C@H](C)O4)O3)O2)[C@H](C)C[C@@H]1C [FLC-00545-1•Na]	106	186.6	0.57	62.8	1.68	
CC[C@@H](C(=O)[C@@H](C)[C@@H](O)[C@H](C)[C@@H]1O[C@@H]([C@@H](CC)C(=O)O)CC[C@@H]1C)[C@H]1O[C@]2(C=C[C@@H](NC(=O)NCCCN3CCS(=O)(=O)CC3)[C@]3(CC[C@@](C)([C@H]4CC[C@](O)(CC)[C@H](C)O4)O3)O2)[C@H](C)C[C@@H]1C [FLC-00546-1•Na]	2180	19.5	112	8.5	258	
CC[C@@H](C(=O)[C@@H](C)[C@@H](O)[C@H](C)[C@@H]1O[C@@H]([C@@H](CC)C(=O)O)CC[C@@H]1C)[C@H]1O[C@]2(C=C[C@@H](NC(=O)OCCc3scnc3C)[C@]3(CC[C@@](C)([C@H]4CC[C@](O)(CC)[C@H](C)O4)O3)O2)[C@H](C)C[C@@H]1C [FLC-00547-1•Na]	77.6	≈56.2	< 1.38	35.2	2.21	
CC[C@@H](C(=O)[C@@H](C)[C@@H](O)[C@H](C)[C@@H]1O[C@@H]([C@@H](CC)C(=O)O)CC[C@@H]1C)[C@H]1O[C@]2(C=C[C@@H](NC(=O)C(C)(C)C)[C@]3(CC[C@@](C)([C@H]4CC[C@](O)(CC)[C@H](C)O4)O3)O2)[C@H](C)C[C@@H]1C [FLC-00550-1•Na]	448	42.1	10.6	26.6	16.9	
CC[C@@H](C(=O)[C@@H](C)[C@@H](O)[C@H](C)[C@@H]1O[C@@H]([C@@H](CC)C(=O)O)CC[C@@H]1C)[C@H]1O[C@]2(C=C[C@@H](NC(=O)OC(C)(C)C#N)[C@]3(CC[C@@](C)([C@H]4CC[C@](O)(CC)[C@H](C)O4)O3)O2)[C@H](C)C[C@@H]1C [FLC-00551-1•Na]	792	12.5	63.6	9.8	81	
C#CC(C)(C)OC(=O)N[C@@H]1C=C[C@]2(O[C@H]([C@@H](CC)C(=O)[C@@H](C)[C@@H](O)[C@H](C)[C@@H]3O[C@@H]([C@@H](CC)C(=O)O)CC[C@@H]3C)[C@@H](C)C[C@H]2C)O[C@@]12CC[C@@](C)([C@H]1CC[C@](O)(CC)[C@H](C)O1)O2 [FLC-00552-1•Na]	187	46.7	4.02	32.1	5.84	
CC[C@@H](C(=O)[C@@H](C)[C@@H](O)[C@H](C)[C@@H]1O[C@@H]([C@@H](CC)C(=O)O)CC[C@@H]1C)[C@H]1O[C@]2(C=C[C@@H](NC(=O)OC3CCN(C)CC3)[C@]3(CC[C@@](C)([C@H]4CC[C@](O)(CC)[C@H](C)O4)O3)O2)[C@H](C)C[C@@H]1C [FLC-00559-1•Na]	5340	16.2	330	17.8	300	
CC[C@@H](C(=O)[C@@H](C)[C@@H](O)[C@H](C)[C@@H]1O[C@@H]([C@@H](CC)C(=O)O)CC[C@@H]1C)[C@H]1O[C@]2(C=C[C@@H](NC(=O)N3CCS(=O)(=O)CC3)[C@]3(CC[C@@](C)([C@H]4CC[C@](O)(CC)[C@H](C)O4)O3)O2)[C@H](C)C[C@@H]1C [FLC-00560-1•Na]	5330	18.8	283	15.7	339	
CC[C@@H](C(=O)[C@@H](C)[C@@H](O)[C@H](C)[C@@H]1O[C@@H]([C@@H](CC)C(=O)O)CC[C@@H]1C)[C@H]1O[C@]2(C=C[C@@H](NC(=O)NCc3cccnc3)[C@]3(CC[C@@](C)([C@H]4CC[C@](O)(CC)[C@H](C)O4)O3)O2)[C@H](C)C[C@@H]1C [FLC-00566-1•Na]	5820	47.6	122	22.8	255	
CC[C@@H](C(=O)[C@@H](C)[C@@H](O)[C@H](C)[C@@H]1O[C@@H]([C@@H](CC)C(=O)O)CC[C@@H]1C)[C@H]1O[C@]2(C=C[C@@H](NC(=O)NCCc3cccnc3)[C@]3(CC[C@@](C)([C@H]4CC[C@](O)(CC)[C@H](C)O4)O3)O2)[C@H](C)C[C@@H]1C [FLC-00567-1•Na]	848	54.2	15.7	25.0	34	
CC[C@@H](C(=O)[C@@H](C)[C@@H](O)[C@H](C)[C@@H]1O[C@@H]([C@@H](CC)C(=O)O)CC[C@@H]1C)[C@H]1O[C@]2(C=C[C@@H](NC(=O)OCCN3CCOCC3)[C@]3(CC[C@@](C)([C@H]4CC[C@](O)(CC)[C@H](C)O4)O3)O2)[C@H](C)C[C@@H]1C [FLC-00570-1•Na]	636	21.2	30	14.6	43.7	
CC[C@@H](C(=O)[C@@H](C)[C@@H](O)[C@H](C)[C@@H]1O[C@@H]([C@@H](CC)C(=O)O)CC[C@@H]1C)[C@H]1O[C@]2(C=C[C@@H](NC(=O)OCCC(C)(C)O)[C@]3(CC[C@@](C)([C@H]4CC[C@](O)(CC)[C@H](C)O4)O3)O2)[C@H](C)C[C@@H]1C [FLC-00577-1•Na]	874	30.0	29.1	20.4	42.8	
CC[C@@H](C(=O)[C@@H](C)[C@@H](O)[C@H](C)[C@@H]1O[C@@H]([C@@H](CC)C(=O)O)CC[C@@H]1C)[C@H]1O[C@]2(C=C[C@@H](NC(=O)c3ccccc3C(F)(F)F)[C@]3(CC[C@@](C)([C@H]4CC[C@](O)(CC)[C@H](C)O4)O3)O2)[C@H](C)C[C@@H]1C [FLC-00578-1•Na]	358	184.9	1.94	59.8	5.99	
CC[C@@H](C(=O)[C@@H](C)[C@@H](O)[C@H](C)[C@@H]1O[C@@H]([C@@H](CC)C(=O)O)CC[C@@H]1C)[C@H]1O[C@]2(C=C[C@@H](NC(=O)c3cccc(C(F)(F)F)c3)[C@]3(CC[C@@](C)([C@H]4CC[C@](O)(CC)[C@H](C)O4)O3)O2)[C@H](C)C[C@@H]1C [FLC-00579-1•Na]	1590	22.3	71.4	8.5	188	
